Assay results published in ChEMBL document CHEMBL5257090, “Modulation of in Vitro SARS-CoV-2 Infection by Stephania tetrandra and Its Alkaloid Constituents” (J Nat Prod, 2023).
Activity calls are given as the source filed them. The rule behind the calls is not given here.

Key:
SARS-CoV-2 [1] = assay: Antiviral activity against SARS-CoV-2 infected in HEK293T cells expressing ACE2/TMPRSS2 assessed as reduction in virus-induced cytopathic effect at 5 to 10 uM measured after 48 hrs by cellular ATP assay; type: functional, organism-based; settings: Severe acute respiratory syndrome coronavirus 2, dose 5-10 µM
SARS-CoV-2 [2] = assay: Antiviral activity against SARS-CoV-2 infected in HEK293T cells expressing ACE2/TMPRSS2 assessed as reduction in virus-induced cytopathic effect measured after 48 hrs by cellular ATP assay; type: functional, organism-based; settings: Severe acute respiratory syndrome coronavirus 2, HEK-293T
[3] = Cytotoxicity against HEK293T cells assessed as reduction in cell viability by CellTiter-Glo assay; type: toxicity, cell-based, HEK-293T; settings: human
SARS-CoV-2 [4] = assay: Antiviral activity against wild-type SARS-CoV-2 USA-WA1/2020 NR-52281 infected in African green monkey Vero E6 cells expressing ACE-2/TMPRSS2 assessed as reduction in virus-induced cytopathic effect at 0.31 to 2.5 uM measured after 48 hrs by cellular ATP assay; type: functional, organism-based; settings: Severe acute respiratory syndrome coronavirus 2, dose 0.31-2.5 µM
SARS-CoV-2 [5] = assay: Antiviral activity against SARS-CoV-2 delta infected in African green monkey Vero E6 cells expressing ACE-2/TMPRSS2 assessed as reduction in virus-induced cytopathic effect at 0.31 to 2.5 uM measured after 48 hrs by cellular ATP assay; type: functional, organism-based; settings: Severe acute respiratory syndrome coronavirus 2, dose 0.31-2.5 µM
[6] = Induction of phospholipidosis in HEK293T cells expressing ACE-2/TMPRSS2 at 1 uM measured after 24 hrs by DAPI staining based fluorescence microscopic analysis; type: toxicity, cell-based; settings: human, hek-293t
[7] = Induction of phospholipidosis in HEK293T cells expressing ACE-2/TMPRSS2 at 100 to 300 nM measured after 24 hrs by DAPI staining based fluorescence microscopic analysis; type: toxicity, cell-based; settings: human, hek-293t, 0.3 µM, dose 100-300 nM
[8] = Induction of phospholipidosis in African green monkey Vero E6 cells expressing ACE-2/TMPRSS2 at 100 to 300 nM measured after 24 hrs by DAPI staining based fluorescence microscopic analysis; type: toxicity, cell-based; settings: chlorocebus sabaeus, vero c1008, 24 h, 0.3 µM, dose 100-300 nM
[9] = Permeability of the compound in pH 7.4 measured after 5 hrs by LC-MS based PAMPA assay; type: ADME; settings: pH 7.4, 5 h
HEK-293T [10] = assay: Downregulation of ORF1ab gene expression in HEK293T cells expressing ACE-2/TMPRSS2 infected with SARS-CoV-2 assessed as fold change preincubated with compound for 2 hrs followed by viral infection and measured after 24 hrs relative to MPV; type: functional, cell-based; settings: Homo sapiens, time 26.0 hrs
SARS-CoV-2 [11] = assay: Antiviral activity against SARS-CoV-2 infected in HEK293T cells expressing ACE2/TMPRSS2 assessed as reduction in virus-induced cytopathic effect at 2.5 uM measured after 48 hrs by cellular ATP assay; type: functional, Severe acute respiratory syndrome coronavirus 2; parameters: scale not given: the % may be the effect or the level left
HEK-293T [12] = assay: Cytotoxicity against HEK293T cells at 2.5 to 10 uM assessed as reduction in cell viability by CellTiter-Glo assay; type: toxicity, cell-based; settings: human, dose 2.5-10 µM
SARS-CoV-2 [13] = assay: Antiviral activity against SARS-CoV-2 infected in HEK293T cells expressing ACE2/TMPRSS2 assessed as reduction in virus-induced cytopathic effect at 10 uM measured after 48 hrs by cellular ATP assay; type: functional, Severe acute respiratory syndrome coronavirus 2; parameters: scale not given: the % may be the effect or the level left
HEK-293T [14] = assay: Downregulation of viral nucleocapsid N gene expression in HEK293T cells expressing ACE-2/TMPRSS2 infected with SARS-CoV-2 assessed as fold change preincubated with compound for 2 hrs followed by viral infection and measured after 24 hrs relative to MPV; type: functional, cell-based; settings: Homo sapiens, time 26.0 hrs
HEK-293T [15] = assay: Up-regulation of leukocyte proliferation genes in HEK293T cells expressing ACE-2/TMPRSS2 infected with SARS-CoV-2 preincubated with compound for 2 hrs followed by viral infection and measured after 24 hrs by gene ontology analysis; type: functional, cell-based; settings: Homo sapiens, time 26.0 hrs
HEK-293T [16] = assay: Cytotoxicity against HEK293T cells at 10 uM assessed as reduction in cell viability by CellTiter-Glo assay; type: toxicity, cell-based; settings: human
HEK-293T [17] = assay: Cytotoxicity against HEK293T cells at 0.1 uM assessed as reduction in cell viability by CellTiter-Glo assay; type: toxicity, cell-based; settings: human

Row | Compound | IC50 (SARS-CoV-2 [2]) [nM] | CC50 [3] [nM] | Activity (SARS-CoV-2 [4]) | Activity [6] | Activity [7] | Activity [8] | Activity (HEK-293T [10]) | other results
1 | O=C(O)[C@H]1O[C@@H](Oc2cc3oc(-c4ccccc4)cc(=O)c3c(O)c2O)[C@H](O)[C@@H](O)[C@@H]1O |  |  |  |  |  |  |  | Activity (SARS-CoV-2 [1]): inactive
2 | O=c1cc(-c2ccccc2)oc2cc(O)c(O)c(O)c12 [BAICALEIN] | 5100 |  |  |  |  |  |  | 
3 | COc1ccc2cc1Oc1ccc(cc1)C[C@H]1c3c(cc4c(c3Oc3cc5c(cc3OC)CCN(C)[C@@H]5C2)OCO4)CCN1C [CEPHARANTHINE] | 143 | 2100 | inactive | Toxic | Non-Toxic | Non-Toxic | Active | Activity (SARS-CoV-2 [5]): Active; permeability [9]: Permeable
4 | CN(C)C(=O)COC(=O)Cc1ccc(OC(=O)c2ccc(NC(=N)N)cc2)cc1 [CAMOSTAT] |  |  |  |  |  |  |  | Activity (SARS-CoV-2 [11]): 23%; Activity (HEK-293T [12]): Non-Toxic; Activity (SARS-CoV-2 [13]): 54.5%
5 | COc1ccc2cc1Oc1ccc(cc1)C[C@H]1c3cc(c(OC)cc3CCN1C)Oc1c(OC)c(OC)cc3c1[C@H](C2)N(C)CC3 [FANCHININ] | 284 | > 1000 | inactive | Toxic | Non-Toxic | Non-Toxic | Active | permeability [9]: Permeable; Activity (HEK-293T [14]): Active; Activity (HEK-293T [15]): Active
6 | COc1ccc2cc1Oc1ccc(cc1)C[C@H]1c3cc(c(OC)cc3CCN1C)Oc1c(O)c(OC)cc3c1[C@H](C2)N(C)CC3 [FANGCHINOLINE] | 193 | > 1000 | inactive | Toxic | Non-Toxic | Non-Toxic | Active | Activity (HEK-293T [15]): Active
7 | CN1[C@@H](CC(=O)c2ccccc2)CCC[C@H]1C[C@H](O)c1ccccc1 |  |  |  |  |  |  |  | Activity (SARS-CoV-2 [1]): inactive
8 | CCC(CC)COC(=O)[C@H](C)N[P@](=O)(OC[C@H]1O[C@@](C#N)(c2ccc3c(N)ncnn23)[C@H](O)[C@@H]1O)Oc1ccccc1 |  |  |  |  |  |  |  | Activity (HEK-293T [16]): Toxic; Activity (HEK-293T [17]): Non-Toxic
